The NIST ThermoML archive (doi:10.1021/acs.jced.5b00407)
Numbers after ± are expanded uncertainties.

Experiment: mn = molality of the nth substance listed, in mol/kg
Conditions: 101.3 kPa, Liquid; for viscosity: Capillary tube (Ostwald / Ubbelohde) method; for mass density: Vibrating tube method

## O=C([O-])[C@H](O)[C@@H](O)[C@H](O[C@@H]1O[C@H](CO)[C@H](O)[C@H](O)[C@H]1O)[C@H](O)CO.[Na+] [sodium lactobionate] + O
288.15 K, m1 = 0.0251
  viscosity: 1.157 ± 0.015 mPa·s
288.15 K, m1 = 0.0502
  viscosity: 1.177 ± 0.016 mPa·s
  mass density: 1010.5 ± 0.9 kg/m3
288.15 K, m1 = 0.0753
  viscosity: 1.211 ± 0.016 mPa·s
  mass density: 1015.2 ± 0.9 kg/m3
288.15 K, m1 = 0.1
  viscosity: 1.257 ± 0.017 mPa·s
  mass density: 1020.1 ± 0.9 kg/m3
288.15 K, m1 = 0.126
  viscosity: 1.286 ± 0.017 mPa·s
  mass density: 1024.5 ± 0.9 kg/m3
288.15 K, m1 = 0.151
  viscosity: 1.332 ± 0.017 mPa·s
  mass density: 1029.1 ± 0.9 kg/m3
288.15 K, m1 = 0.176
  viscosity: 1.374 ± 0.018 mPa·s
  mass density: 1034.1 ± 0.9 kg/m3
288.15 K, m1 = 0.201
  viscosity: 1.432 ± 0.019 mPa·s
  mass density: 1039 ± 0.9 kg/m3
293.15 K, m1 = 0.0251
  viscosity: 1.018 ± 0.013 mPa·s
293.15 K, m1 = 0.0502
  viscosity: 1.036 ± 0.014 mPa·s
  mass density: 1009.1 ± 0.9 kg/m3
293.15 K, m1 = 0.0753
  viscosity: 1.066 ± 0.014 mPa·s
  mass density: 1013.9 ± 0.9 kg/m3
293.15 K, m1 = 0.1
  viscosity: 1.106 ± 0.015 mPa·s
  mass density: 1018.9 ± 0.9 kg/m3
293.15 K, m1 = 0.126
  viscosity: 1.132 ± 0.015 mPa·s
  mass density: 1023.3 ± 0.9 kg/m3
293.15 K, m1 = 0.151
  viscosity: 1.171 ± 0.015 mPa·s
  mass density: 1028.1 ± 0.9 kg/m3
293.15 K, m1 = 0.176
  viscosity: 1.208 ± 0.016 mPa·s
  mass density: 1033 ± 0.9 kg/m3
293.15 K, m1 = 0.201
  viscosity: 1.26 ± 0.017 mPa·s
  mass density: 1037.7 ± 0.9 kg/m3
298.15 K, m1 = 0.0251
  viscosity: 0.9041 ± 0.012 mPa·s
298.15 K, m1 = 0.0502
  viscosity: 0.9201 ± 0.012 mPa·s
  mass density: 1007.6 ± 0.9 kg/m3
298.15 K, m1 = 0.0753
  viscosity: 0.9457 ± 0.013 mPa·s
  mass density: 1012.6 ± 0.9 kg/m3
298.15 K, m1 = 0.1
  viscosity: 0.9824 ± 0.013 mPa·s
  mass density: 1017.7 ± 0.9 kg/m3
298.15 K, m1 = 0.126
  viscosity: 1.006 ± 0.013 mPa·s
  mass density: 1022.1 ± 0.9 kg/m3
298.15 K, m1 = 0.151
  viscosity: 1.041 ± 0.014 mPa·s
  mass density: 1026.9 ± 0.9 kg/m3
298.15 K, m1 = 0.176
  viscosity: 1.074 ± 0.014 mPa·s
  mass density: 1031.8 ± 0.9 kg/m3
298.15 K, m1 = 0.201
  viscosity: 1.119 ± 0.015 mPa·s
  mass density: 1036.4 ± 0.9 kg/m3
303.15 K, m1 = 0.0251
  viscosity: 0.8091 ± 0.011 mPa·s
303.15 K, m1 = 0.0502
  viscosity: 0.8233 ± 0.011 mPa·s
  mass density: 1006.2 ± 0.9 kg/m3
303.15 K, m1 = 0.0753
  viscosity: 0.8464 ± 0.011 mPa·s
  mass density: 1011.2 ± 0.9 kg/m3
303.15 K, m1 = 0.1
  viscosity: 0.8796 ± 0.012 mPa·s
  mass density: 1016.4 ± 0.9 kg/m3
303.15 K, m1 = 0.126
  viscosity: 0.9001 ± 0.012 mPa·s
  mass density: 1020.8 ± 0.9 kg/m3
303.15 K, m1 = 0.151
  viscosity: 0.9321 ± 0.012 mPa·s
  mass density: 1025.5 ± 0.9 kg/m3
303.15 K, m1 = 0.176
  viscosity: 0.9614 ± 0.013 mPa·s
  mass density: 1030.3 ± 0.9 kg/m3
303.15 K, m1 = 0.201
  viscosity: 1.002 ± 0.013 mPa·s
  mass density: 1035.1 ± 0.9 kg/m3
308.15 K, m1 = 0.0251
  viscosity: 0.7289 ± 0.0096 mPa·s
308.15 K, m1 = 0.0502
  viscosity: 0.7415 ± 0.0098 mPa·s
  mass density: 1004.5 ± 0.9 kg/m3
308.15 K, m1 = 0.0753
  viscosity: 0.7623 ± 0.01 mPa·s
  mass density: 1009.7 ± 0.9 kg/m3
308.15 K, m1 = 0.1
  viscosity: 0.7921 ± 0.01 mPa·s
  mass density: 1014.9 ± 0.9 kg/m3
308.15 K, m1 = 0.126
  viscosity: 0.8111 ± 0.011 mPa·s
  mass density: 1019.4 ± 0.9 kg/m3
308.15 K, m1 = 0.151
  viscosity: 0.8399 ± 0.011 mPa·s
  mass density: 1023.9 ± 0.9 kg/m3
308.15 K, m1 = 0.176
  viscosity: 0.8655 ± 0.011 mPa·s
  mass density: 1028.8 ± 0.9 kg/m3
308.15 K, m1 = 0.201
  viscosity: 0.9029 ± 0.012 mPa·s
  mass density: 1033.5 ± 0.9 kg/m3
313.15 K, m1 = 0.0251
  viscosity: 0.6612 ± 0.0087 mPa·s
313.15 K, m1 = 0.0502
  viscosity: 0.6729 ± 0.0089 mPa·s
  mass density: 1003.1 ± 0.9 kg/m3
313.15 K, m1 = 0.0753
  viscosity: 0.692 ± 0.0092 mPa·s
  mass density: 1008.1 ± 0.9 kg/m3
313.15 K, m1 = 0.1
  viscosity: 0.7187 ± 0.0096 mPa·s
  mass density: 1013.3 ± 0.9 kg/m3
313.15 K, m1 = 0.126
  viscosity: 0.7357 ± 0.0098 mPa·s
  mass density: 1017.8 ± 0.9 kg/m3
313.15 K, m1 = 0.151
  viscosity: 0.7622 ± 0.01 mPa·s
  mass density: 1022.1 ± 0.9 kg/m3
313.15 K, m1 = 0.176
  viscosity: 0.7851 ± 0.01 mPa·s
313.15 K, m1 = 0.201
  viscosity: 0.8191 ± 0.011 mPa·s
